Measured values taken from patent publication US4123612A, “7-(5-Am ino-5-carboxyvaleramido)-3-(carbamoyoloxymethyl)-3-cephem-4-carboxylic acid” (Eli Lilly and Company, priority 1974, dated 1978).
Counter-ions that a name gives are not always drawn.

Tests used:
physchem = conditions: 66% dimethylformamide-water
Proteus sp. PR7 = assay: Bauer-Kirby disc diffusion, zone of inhibition; format: cell-based
Proteus sp. PR6 = assay: Bauer-Kirby disc diffusion, zone of inhibition; format: cell-based
Pseudomonas sp. Ps 30 = assay: Bauer-Kirby disc diffusion, zone of inhibition; format: cell-based
Salmonella typhosa SA 16 = assay: Bauer-Kirby disc diffusion, zone of inhibition; conditions: Salmonella enterica
Source text: (§2) The evaluation was made on the monoammonium salts of separated factors I and II.

Escherichia coli EC 25 = assay: Bauer-Kirby disc diffusion, zone of inhibition; format: cell-based
[1] = test system: Klebsiella-Aerobacter KA 25; assay: Bauer-Kirby disc diffusion, zone of inhibition; format: cell-based
Salmonella typhosa SA 12 = assay: Bauer-Kirby disc diffusion, zone of inhibition; conditions: Salmonella enterica
Source text: as §2

Pseudomonas sp. Ps 24 = assay: Bauer-Kirby disc diffusion, zone of inhibition; format: cell-based
[2] = test system: Ascaris lumbricoides var. suum; assay: anthelmintic evaluation in mice by treated feed, separate factors (Example 13); format: in vivo; conditions: 0.05 percent in diet, control 2.66
Source text: The feeds were utilized as diets for separate groups of mice, five mice per group. About twelve hours after initiation of the feeding, the mice were infected with Ascaris lumbricoides var. suum ova. Another group of five mice was fed the non-medicated feed to serve as a control but was similarly infected at the same time with Ascaris lumbricoides var. suum. All groups were fed their respective feed and maintained under normal laboratory conditions for a period of eight days, at which time all mice were taken off feed. On the ninth day, all mice were sacrificed and the lungs examined to determine the presence, and if present, numbers, of lesions of Ascaris lumbricoides var. suum.
In a further evaluation, the monoammonium salts of A16886I and A16886II were separately evaluated for the control of Ascaris lumbricoides var. suum. The evaluations were conducted in accordance with the procedure reported in Example 11 at a concentration in the diet of 0.05 percent.

Escherichia coli 0127 = assay: Bauer-Kirby disc diffusion, zone of inhibition; format: cell-based
solubility = format: physicochemical
[3] = test system: Staphylococcus aureus 3074; assay: Bauer-Kirby disc diffusion, zone of inhibition; format: cell-based
[4] = test system: Staphylococcus aureus 3055; assay: Bauer-Kirby disc diffusion, zone of inhibition; format: cell-based
[5] = test system: Klebsiella-Aerobacter KA 14; assay: Bauer-Kirby disc diffusion, zone of inhibition; format: cell-based
tomato plants = assay: field trial on tomato plants, crop injury (Example 9); format: in vivo; conditions: 0 = no injury, 10 = dead plants
Procedure: (§1) A mixture of the monoammonium salt of A16886I and the monoammonium salt of A16886II was tested under field conditions for the control of Xanthomonas vesicatoria (bacterial spot) on mature bearing tomato plants. The mixture of the two salts was dispersed in water at a concentration of 100, 200, or 400 parts per million and applied to the plants at the rate of 75 gallons per acre. Application was made with a CO2 sprayer at 50 psi. Plants were sprayed twice, on successive days; after the second spray had dried, all plants were wounded by sand blasting and then within one minute the plants were inoculated with a bacterial inoculum of Xanthomonas vesicatoria. Three days later, a third spray application of the aqueous formulation of A16886 was made. Readings were made one week and two weeks after the last spray treatment. Controls consisted of groups of plants (1) sand blasted and inoculated; (2) sand blasted only; (3) untreated; and (4) treated with streptomycin (on the same three-day spraying schedule, at a concentration of 100, 200, or 400 parts per million of aqueous solution, using a rate of 75 gallons per acre), sand blasted, and inoculated. The results were as set forth in the following table, in which crop injury is reported on a scale of 0-10, with 0 = no injury and 10 = dead plants; and control of bacterial spot is reported on a percentage basis.

Xanthomonas vesicatoria = assay: field trial on tomato plants, bacterial spot control (Example 9); format: in vivo
Procedure: as §1

Compound `COC1(NC(=O)CCCC(N)C(=O)O)C(=O)N2C(C(=O)O)=C(COC(N)=O)CSC21` (stereo not drawn) [A16886I hydrochloride] has a pKa (physchem; pH 5, pK'a1) of 3.6, a pKa (physchem; pH 5, pK'a2) of 5.2 and a pKa (physchem; pH 5, pK'a3) of 10.8.
For `NC(=O)OCC1=C(C(=O)O)N2C(=O)C(NC(=O)CCCC(N)C(=O)O)[C@H]2SC1` (stereo partly drawn) [A16886II, 7-(5-amino-5-carboxyvaleramido)-3-(carbamoyloxymethyl)-3-cephem-4-carboxylic acid], the zone of inhibition at 0.5 µg/disc (Proteus sp. PR7; 0.5 μg./disc) was 0 mm, the zone of inhibition at 1 µg/disc (Proteus sp. PR7; 1.0 μg./disc) was 0 mm and the zone of inhibition at 2.5 µg/disc (Proteus sp. PR7; 2.5 μg./disc) was 0 mm. The zone of inhibition at 5 µg/disc (Proteus sp. PR7; 5 μg./disc) was 0 mm, the zone of inhibition at 10 µg/disc (Proteus sp. PR7; 10 μg./disc) was 0 mm and the zone of inhibition at 30 µg/disc (Proteus sp. PR7; 30 μg./disc) was 7.1 mm. It also gave a zone of inhibition at 0.5 µg/disc (Proteus sp. PR6; 0.5 μg./disc) of 0 mm, a zone of inhibition at 1 µg/disc (Proteus sp. PR6; 1.0 μg./disc) of 0 mm and a zone of inhibition at 2.5 µg/disc (Proteus sp. PR6; 2.5 μg./disc) of 10.4 mm. It also gave a zone of inhibition at 5 µg/disc (Proteus sp. PR6; 5 μg./disc) of 13.6 mm, a zone of inhibition at 10 µg/disc (Proteus sp. PR6; 10 μg./disc) of 16.7 mm and a zone of inhibition at 30 µg/disc (Proteus sp. PR6; 30 μg./disc) of 22.2 mm. For the same compound, the zone of inhibition at 0.5 µg/disc (Pseudomonas sp. Ps 30; SP.PS30, 0.5 μg./disc) was 0 mm, the zone of inhibition at 1 µg/disc (Pseudomonas sp. Ps 30; SP.PS30, 1.0 μg./disc) was 0 mm and the zone of inhibition at 2.5 µg/disc (Pseudomonas sp. Ps 30; SP.PS30, 2.5 μg./disc) was 0 mm. The zone of inhibition at 5 µg/disc (Pseudomonas sp. Ps 30; SP.PS30, 5 μg./disc) was 0 mm, the zone of inhibition at 10 µg/disc (Pseudomonas sp. Ps 30; SP.PS30, 10 μg./disc) was 0 mm and the zone of inhibition at 30 µg/disc (Pseudomonas sp. Ps 30; SP.PS30, 30 μg./disc) was 0 mm. It also gave a zone of inhibition at 0.5 µg/disc (Salmonella typhosa SA 16) of 0 mm, a zone of inhibition at 1 µg/disc (Salmonella typhosa SA 16) of 0 mm and a zone of inhibition at 2.5 µg/disc (Salmonella typhosa SA 16) of 7.5 mm. The zone of inhibition at 5 µg/disc (Salmonella typhosa SA 16) was 11 mm, the zone of inhibition at 10 µg/disc (Salmonella typhosa SA 16) was 13.4 mm and the zone of inhibition at 30 µg/disc (Salmonella typhosa SA 16) was 19.3 mm. The zone of inhibition at 0.5 µg/disc (Escherichia coli EC 25; EC25, 0.5 μg./disc) was 0 mm, the zone of inhibition at 1 µg/disc (Escherichia coli EC 25; EC25, 1.0 μg./disc) was 0 mm and the zone of inhibition at 2.5 µg/disc (Escherichia coli EC 25; EC25, 2.5 μg./disc) was 0 mm. For the same compound, the zone of inhibition at 5 µg/disc (Escherichia coli EC 25; EC25, 5 μg./disc) was 0 mm, the zone of inhibition at 10 µg/disc (Escherichia coli EC 25; EC25, 10 μg./disc) was 7.7 mm and the zone of inhibition at 30 µg/disc (Escherichia coli EC 25; EC25, 30 μg./disc) was 11.9 mm. The zone of inhibition at 0.5 µg/disc ([1]; 0.5 μg./disc) was 0 mm, the zone of inhibition at 1 µg/disc ([1]; 1.0 μg./disc) was 0 mm and the zone of inhibition at 2.5 µg/disc ([1]; 2.5 μg./disc) was 0 mm. It also gave a zone of inhibition at 5 µg/disc ([1]; 5 μg./disc) of 7.4 mm, a zone of inhibition at 10 µg/disc ([1]; 10 μg./disc) of 10.1 mm and a zone of inhibition at 30 µg/disc ([1]; 30 μg./disc) of 15.6 mm. For the same compound, the zone of inhibition at 0.5 µg/disc (Salmonella typhosa SA 12) was 0 mm, the zone of inhibition at 1 µg/disc (Salmonella typhosa SA 12) was 7.5 mm and the zone of inhibition at 2.5 µg/disc (Salmonella typhosa SA 12) was 12.3 mm. The zone of inhibition at 5 µg/disc (Salmonella typhosa SA 12) was 15.6 mm, the zone of inhibition at 10 µg/disc (Salmonella typhosa SA 12) was 18.7 mm and the zone of inhibition at 30 µg/disc (Salmonella typhosa SA 12) was 23.8 mm. The zone of inhibition at 0.5 µg/disc (Pseudomonas sp. Ps 24; SP.PS24, 0.5 μg./disc) was 0 mm, the zone of inhibition at 1 µg/disc (Pseudomonas sp. Ps 24; SP.PS24, 1.0 μg./disc) was 0 mm and the zone of inhibition at 2.5 µg/disc (Pseudomonas sp. Ps 24; SP.PS24, 2.5 μg./disc, * = satellite colonies within zone (Factor II)) was 9.3 mm. It also gave a zone of inhibition at 5 µg/disc (Pseudomonas sp. Ps 24; SP.PS24, 5 μg./disc, * = satellite colonies within zone (Factor II)) of 12.3 mm, a zone of inhibition at 10 µg/disc (Pseudomonas sp. Ps 24; SP.PS24, 10 μg./disc) of 15.4 mm and a zone of inhibition at 30 µg/disc (Pseudomonas sp. Ps 24; SP.PS24, 30 μg./disc) of 20.2 mm. The “Average Number of Lung Lesions Per Group” value [2] was 0.20, the zone of inhibition at 0.5 µg/disc (Escherichia coli 0127; 0.5 μg./disc) was 0 mm and the zone of inhibition at 1 µg/disc (Escherichia coli 0127; 1.0 μg./disc) was 0 mm. The zone of inhibition at 2.5 µg/disc (Escherichia coli 0127; 2.5 μg./disc) was 9.4 mm, the zone of inhibition at 5 µg/disc (Escherichia coli 0127; 5 μg./disc) was 12.9 mm and the zone of inhibition at 10 µg/disc (Escherichia coli 0127; 10 μg./disc) was 15.9 mm. For the same compound, the zone of inhibition at 30 µg/disc (Escherichia coli 0127; 30 μg./disc) was 19.7 mm, the “solubility in acetonitrile and other organic solvents” value (solubility; acetonitrile and other organic solvents) was “essentially insoluble” and the “solubility in lower alkanols” value (solubility; lower alkanols) was “slightly soluble”. For the same compound, the solubility in water (solubility; water) was “very soluble”, the pKa (physchem; pH 6.8, pK'a1) was 4 and the pKa (physchem; pH 6.8, pK'a2) was 5.3. For the same compound, the pKa (physchem; pH 6.8, pK'a3) was 9.2, the pKa (physchem; pH 6.8, pK'a4) was 10.5 and the pKa (physchem; pH 7.7, pK'a1) was 4.4. It also gave a pKa (physchem; pH 7.7, pK'a2) of 5.7, a pKa (physchem; pH 7.7, pK'a3) of 9.6 and a pKa (physchem; pH 7.7, pK'a4) of 10.4. The zone of inhibition at 0.5 µg/disc ([3]; 0.5 μg./disc) was 0 mm, the zone of inhibition at 1 µg/disc ([3]; 1.0 μg./disc) was 0 mm and the zone of inhibition at 2.5 µg/disc ([3]; 2.5 μg./disc) was 0 mm. The zone of inhibition at 5 µg/disc ([3]; 5 μg./disc) was 0 mm, the zone of inhibition at 10 µg/disc ([3]; 10 μg./disc) was 0 mm and the zone of inhibition at 30 µg/disc ([3]; 30 μg./disc) was 10.1 mm. It also gave a zone of inhibition at 0.5 µg/disc ([4]; 0.5 μg./disc) of 0 mm, a zone of inhibition at 1 µg/disc ([4]; 1.0 μg./disc) of 0 mm and a zone of inhibition at 2.5 µg/disc ([4]; 2.5 μg./disc) of 0 mm. The zone of inhibition at 5 µg/disc ([4]; 5 μg./disc) was 0 mm, the zone of inhibition at 10 µg/disc ([4]; 10 μg./disc) was 0 mm and the zone of inhibition at 30 µg/disc ([4]; 30 μg./disc) was 12.4 mm. The zone of inhibition at 0.5 µg/disc ([5]; 0.5 μg./disc) was 0 mm, the zone of inhibition at 1 µg/disc ([5]; 1.0 μg./disc) was 0 mm and the zone of inhibition at 2.5 µg/disc ([5]; 2.5 μg./disc) was 0 mm. It also gave a zone of inhibition at 5 µg/disc ([5]; 5 μg./disc) of 10.8 mm, a zone of inhibition at 10 µg/disc ([5]; 10 μg./disc) of 13.7 mm and a zone of inhibition at 30 µg/disc ([5]; 30 μg./disc) of 20.1 mm.
For `[H]/N=C(/N)N[C@H]1[C@H](O)[C@@H](O)[C@H](O[C@@H]2O[C@@H](C)[C@](O)(C=O)[C@H]2O[C@@H]2O[C@@H](CO)[C@H](O)[C@@H](O)[C@@H]2NC)[C@@H](N/C(N)=N\[H])[C@@H]1O` [Streptomycin], the “Crop Injury Ratings” value (tomato plants; 100 parts/million, first reading) was 0, the “Crop Injury Ratings” value (tomato plants; 100 parts/million, second reading) was 0 and the “Crop Injury Ratings” value (tomato plants; 200 parts/million, first reading) was 0. For the same compound, the “Crop Injury Ratings” value (tomato plants; 200 parts/million, second reading) was 0, the “Crop Injury Ratings” value (tomato plants; 400 parts/million, first reading) was 0 and the “Crop Injury Ratings” value (tomato plants; 400 parts/million, second reading) was 0. For the same compound, the “Percent Bacterial Spot Control” value (Xanthomonas vesicatoria; 100 parts/million, first reading (one week)) was 83%, the “Percent Bacterial Spot Control” value (Xanthomonas vesicatoria; 100 parts/million, second reading (two weeks)) was 57% and the “Percent Bacterial Spot Control” value (Xanthomonas vesicatoria; 200 parts/million, first reading (one week)) was 81%. The “Percent Bacterial Spot Control” value (Xanthomonas vesicatoria; 200 parts/million, second reading (two weeks)) was 37%, the “Percent Bacterial Spot Control” value (Xanthomonas vesicatoria; 400 parts/million, first reading (one week)) was 83% and the “Percent Bacterial Spot Control” value (Xanthomonas vesicatoria; 400 parts/million, second reading (two weeks)) was 59%.
